This passage reports MTD and LD50 results from patent US9139551B2, “Preparation of a new class of water-soluble ammonium 2,3-dihydroxy-5-((2R,3R)-3,5,7-trihydroxy-4-oxochroman-2-yl) phenolates and their biological activity of alcohol elimination” (priority 2014, dated 2015).

A short description of data set [1]: Acute toxicity, intragastric administration (maximum tolerated dose). The note with it: both, mouse, in vivo, po, 1250 mg/kg.
Data set [2] is described as follows: Acute toxicity, intraperitoneal administration (mortality, LD50, body weight, dietary). The note with it: both sexes, mouse, in vivo, ip, mice, i.p., observed 7 days. Type of data set: in vivo, mice. The method, then:
Acute Toxicity • Compounds PDHM/TDHM.
140 mice were divided into 7 groups (n=20), each group include 10 males and 10 females, they were treated with different concentrations of dosages and observed for 7 days. Specific experimental groups and experimental results were noted below. Note: Section 1-6 group compound are PDHM groups, and group 7 is a negative control group.
140 mice were divided into 7 groups (n=20), each group include 10 males and 10 females, they were treated with different concentrations of dosage and observed for 7 days. Note: Section 1-6 group compound are PDHM groups, and group 7 is a negative control group.

Each structure is given as a SMILES string. Where two headings read alike, the source gives them in different places.

As usually defined, the MTD is the highest dose tested that stayed within the study's limit of toxicity. `O=C1c2c(O)cc(O)cc2O[C@H](c2cc(O)c(O)c(O)c2)[C@H]1O` [PDHM, piperidinium 2,3-dihydroxy-5-((2R,3R)-3,5,7-trihydroxy-4-oxochroman-2-yl)phenolate] displayed a maximum tolerated dose (MTD) at 7 days in data set [1] of 3750 mg/kg. For the same compound, the LD50 at 7 days was 743 to 755 mg/kg in data set [2] (read-out: 95% confidence limit of LD50) and 902 mg/kg in data set [2] (read-out: LD50).
